The source of these data is ChEMBL document CHEMBL4334511, “Trivirensols: Selectively Bacteriostatic Sesquiterpene Trimers from the Australian Termite Nest-Derived Fungus Trichoderma virens CMB-TN16” (J Nat Prod, 2019).

One series relates to SW-620. As to the kind of experiment: Cytotoxicity against human SW620 cells assessed as reduction in cell viability upto 30 uM incubated for 48 hrs by MTT assay. It counts as cell-based. The following applies: sw-620, 48 h.
The test system of a further series is NCI-H460. The experiment in a line: Cytotoxicity against human NCI-H460 cells assessed as reduction in cell viability upto 30 uM incubated for 48 hrs by MTT assay. The class given is cell-based. The following applies: nci-h460, 48 h. On the technique in general: Formazan colour is commonly taken as a measure of viable cells.
The next series concerns Candida albicans. As to the kind of experiment: Antifungal activity against Candida albicans ATCC 90028 assessed as reduction in fungal growth at 0.01 to 30 uM incubated for 24 hrs by spectrophotometry based broth microdilution assay. The class given is functional, organism-based. A general note: Dilution methods test growth across graded concentrations, often in twofold steps.

A further series concerns Bacillus subtilis. As to the kind of experiment: Antibacterial activity against Bacillus subtilis ATCC 6633 assessed as reduction in […] growth at 0.01 to 30 uM incubated for 24 hrs by spectrophotometry based broth microdilution assay. The class given is functional, organism-based.
The test system of series [1] is Staphylococcus aureus. The experiment in a line: Antibacterial activity against Staphylococcus aureus ATCC 9144 assessed as reduction in […] growth at 0.01 to 30 uM incubated for 24 hrs by spectrophotometry based broth microdilution assay. It counts as functional, organism-based.
In a further series the test system is Streptococcus pyogenes. The experiment in a line: Antibacterial activity against Streptococcus pyogenes ATCC 12344 assessed as reduction in […] growth at 0.01 to 30 uM incubated for 24 hrs by spectrophotometry based broth microdilution assay. It counts as functional, organism-based.
In series [2] the test system is Escherichia coli. As to the kind of experiment: Antibacterial activity against Escherichia coli ATCC 11775 assessed as reduction in […] growth at 0.01 to 30 uM incubated for 24 hrs by spectrophotometry based broth microdilution assay. It counts as functional, organism-based.
In series [3] the test system is Staphylococcus aureus. As to the kind of experiment: Antibacterial activity against methicillin-resistant Staphylococcus aureus AUS-RBWH-MRSA-02 assessed as reduction in […] growth at 0.01 to 30 uM incubated for 24 hrs by spectrophotometry based broth microdilution assay. It counts as functional, organism-based.
The test system of series [4] is Escherichia coli. The experiment in a line: Antibacterial activity against Escherichia coli KUW-kw-AmH-11 assessed as reduction in […] growth at 0.01 to 30 uM incubated for 24 hrs by spectrophotometry based broth microdilution assay. The class given is functional, organism-based.
Series [5] concerns Pseudomonas aeruginosa. The experiment in a line: Antibacterial activity against IMP producing Pseudomonas aeruginosa UAE-DBI-ZMH-91 assessed as reduction in […] growth at 0.01 to 30 uM incubated for 24 hrs by spectrophotometry based broth microdilution assay. It counts as functional, organism-based.
Series [6] has as its system Pseudomonas aeruginosa. As to the kind of experiment: Antibacterial activity against VIM producing Pseudomonas aeruginosa SA-EP-KFUH-40 assessed as reduction in […] growth at 0.01 to 30 uM incubated for 24 hrs by spectrophotometry based broth microdilution assay. It counts as functional, organism-based.
Series [7] relates to Klebsiella pneumoniae. As to the kind of experiment: Antibacterial activity against NDM-producing Klebsiella pneumoniae SA-Rd-KAMC-037 assessed as reduction in […] growth at 0.01 to 30 uM incubated for 24 hrs by spectrophotometry based broth microdilution assay. It counts as functional, organism-based.
In series [8] the test system is Klebsiella pneumoniae. As to the kind of experiment: Antibacterial activity against OXA-48-producing Klebsiella pneumoniae SA-Rd-KAMC-014 assessed as reduction in […] growth at 0.01 to 30 uM incubated for 24 hrs by spectrophotometry based broth microdilution assay. It counts as functional, organism-based.
The subject of the next series is Acinetobacter baumannii. As to the kind of experiment: Antibacterial activity against OXA-23-producing Acinetobacter baumannii SA-Rd-KAMC-083 assessed as reduction in […] growth at 0.01 to 30 uM incubated for 24 hrs by spectrophotometry based broth microdilution assay. The class given is functional, organism-based.
Series [9] concerns Enterococcus faecalis. As to the kind of experiment: Antibacterial activity against vancomycin-resistant Enterococcus faecalis AUS-RBWH-VRE-01 assessed as reduction in […] growth incubated for 24 hrs by spectrophotometry based broth microdilution assay. The class given is functional, organism-based.
In series [10] the test system is Enterococcus faecalis. The experiment in a line: Antibacterial activity against vancomycin-resistant Enterococcus faecalis AUS-RBWH-VRE-01 assessed as fold reduction in growth by measuring colony formation unit at 30 uM incubated for 24 hrs by time kill assay. It counts as functional.

Calls of active or inactive are those of the source. The calls are words filed in the database; no cut-off is given here.

In the case of `CC(C)[C@H]1CC[C@@](O)(COC(=O)C2=C[C@@H]3[C@@H](C(C)C)CC[C@@](O)(COC(=O)/C(=C/[C@H]4C=C(CO)CC[C@@H]4C(C)C)CO)[C@H]3C(=O)OC2)[C@H]2C(=O)OCC(C(=O)O)=C[C@H]12`, the Activity entry in the series with SW-620 and in the series with NCI-H460 was “Non-Toxic” in each case. Moreover, the result in the series on Candida albicans, with Bacillus subtilis, in the series with Staphylococcus aureus [1], in the series on Streptococcus pyogenes, with Escherichia coli [2] and with Staphylococcus aureus [3] was inactive. Besides, the outcome in the series with Escherichia coli [4], in the series with Pseudomonas aeruginosa [5], in the series with Pseudomonas aeruginosa [6], with Klebsiella pneumoniae [7], in the series with Klebsiella pneumoniae [8] and in the series on Acinetobacter baumannii was inactive. Also, the IC50 result in the series with Enterococcus faecalis [9] is on record as “Not Active”.
Take `CC(C)[C@H]1CC[C@@](O)(COC(=O)/C(=C/[C@H]2C=C(CO)CC[C@@H]2C(C)C)CO)[C@H]2C(=O)OCC(C(=O)O[C@@]34CC[C@H](C(C)C)[C@@H](/C=C(\CO)C(=O)O)[C@@H]3C(=O)OC4)=C[C@H]12`: the Activity result with SW-620 and in the series with NCI-H460 was “Non-Toxic” in each case. Besides, the outcome in the series with Candida albicans, in the series with Bacillus subtilis, in the series with Staphylococcus aureus [1], in the series with Streptococcus pyogenes, in the series on Escherichia coli [2] and in the series on Staphylococcus aureus [3] was inactive. For the same compound, the result with Escherichia coli [4], with Pseudomonas aeruginosa [5], in the series with Pseudomonas aeruginosa [6], in the series with Klebsiella pneumoniae [7], with Klebsiella pneumoniae [8] and in the series on Acinetobacter baumannii was inactive. In addition, the IC50 entry in the series with Enterococcus faecalis [9] was “Not Active”.
On to `CC(C)[C@H]1CC[C@@](O)(COC(=O)/C(=C/[C@H]2C3=C(CC[C@@H]2C(C)C)COC3=O)CO)[C@H]2C(=O)OCC(C(=O)O)=C[C@H]12`, for which the Activity entry in the series on SW-620 and in the series with NCI-H460 was “Non-Toxic” each time. Besides, the outcome in the series on Candida albicans, in the series on Bacillus subtilis, in the series with Staphylococcus aureus [1], in the series on Streptococcus pyogenes, in the series with Escherichia coli [2] and with Staphylococcus aureus [3] was inactive. In addition, the result in the series on Escherichia coli [4], in the series on Pseudomonas aeruginosa [5], with Pseudomonas aeruginosa [6], with Klebsiella pneumoniae [7], in the series with Klebsiella pneumoniae [8] and in the series on Acinetobacter baumannii was inactive. In the series on Enterococcus faecalis [10], the result was Active.
As for `CC(C)[C@H]1CC[C@@](O)(COC(=O)/C(=C/[C@H]2C=C(CO)CC[C@@H]2C(C)C)CO)[C@H]2C(=O)OCC(C(=O)O)=C[C@H]12`, the Activity entry in the series with SW-620 and in the series on NCI-H460 was “Non-Toxic” in each case. The outcome in the series on Candida albicans, in the series with Bacillus subtilis, with Staphylococcus aureus [1], in the series on Streptococcus pyogenes, in the series with Escherichia coli [2] and in the series with Staphylococcus aureus [3] was inactive. Further, the outcome with Escherichia coli [4], with Pseudomonas aeruginosa [5], in the series on Pseudomonas aeruginosa [6], in the series with Klebsiella pneumoniae [7], with Klebsiella pneumoniae [8] and in the series on Acinetobacter baumannii was inactive.
Turning to `CC(C)[C@H]1CC[C@@]2(OC(=O)/C(=C/[C@H]3C=C(CO)CC[C@@H]3C(C)C)CO)COC(=O)[C@H]2[C@@H]1/C=C(\CO)C(=O)O`, the Activity result with SW-620 and in the series on NCI-H460 was “Non-Toxic” throughout. Moreover, the outcome in the series on Candida albicans, with Bacillus subtilis, in the series on Staphylococcus aureus [1], with Streptococcus pyogenes, in the series on Escherichia coli [2] and in the series on Staphylococcus aureus [3] was inactive. Besides, the result in the series on Escherichia coli [4], in the series on Pseudomonas aeruginosa [5], with Pseudomonas aeruginosa [6], with Klebsiella pneumoniae [7], in the series on Klebsiella pneumoniae [8] and with Acinetobacter baumannii was inactive.
For the compound `CN[C@H](CC(C)C)C(=O)N[C@H]1C(=O)N[C@@H](CC(N)=O)C(=O)N[C@H]2C(=O)N[C@H]3C(=O)N[C@H](C(=O)N[C@H](C(=O)O)c4cc(O)cc(O)c4-c4cc3ccc4O)[C@H](O)c3ccc(c(Cl)c3)Oc3cc2cc(c3O[C@@H]2O[C@H](CO)[C@@H](O)[C@H](O)[C@H]2O[C@H]2C[C@](C)(N)[C@H](O)[C@H](C)O2)Oc2ccc(cc2Cl)[C@H]1O` [VANCOMYCIN], the “fold change (FC)” value in the series with Enterococcus faecalis [10] worked out at 100.
Take `CC(C)[C@H]1CC[C@@](O)(COC(=O)C2=C[C@H]3[C@@H](OC2)[C@H](CO)CC[C@@H]3C(C)C)[C@H]2C(=O)OCC(C(=O)O)=C[C@H]12`: the Activity entry in the series on SW-620 and with NCI-H460 was “Non-Toxic” each time. Moreover, the result in the series on Candida albicans, in the series on Bacillus subtilis, in the series with Staphylococcus aureus [1], in the series with Streptococcus pyogenes, with Escherichia coli [2] and with Staphylococcus aureus [3] was inactive. In addition, the outcome with Escherichia coli [4], with Pseudomonas aeruginosa [5], with Pseudomonas aeruginosa [6], in the series with Klebsiella pneumoniae [7], in the series on Klebsiella pneumoniae [8] and in the series on Acinetobacter baumannii was inactive.
On to `CC(C)[C@H]1CC[C@@](O)(COC(=O)/C(=C/[C@@H]2[C@@H](C(C)C)CC[C@@]3(OC(=O)/C(=C/[C@H]4C=C(CO)CC[C@@H]4C(C)C)CO)COC(=O)[C@@H]23)CO)[C@H]2C(=O)OCC(C(=O)O)=C[C@H]12`, for which the Activity entry with SW-620 and with NCI-H460 was “Non-Toxic” throughout. Also, the outcome in the series with Candida albicans, with Bacillus subtilis, with Staphylococcus aureus [1], with Streptococcus pyogenes, in the series with Escherichia coli [2] and in the series on Staphylococcus aureus [3] was inactive. The result with Escherichia coli [4], with Pseudomonas aeruginosa [5], in the series with Pseudomonas aeruginosa [6], in the series on Klebsiella pneumoniae [7], with Klebsiella pneumoniae [8] and with Acinetobacter baumannii was inactive. For the same compound, the IC50 entry in the series on Enterococcus faecalis [9] is given as “Not Active”.
As for `CC(C)[C@H]1CC[C@@]2(OC(=O)/C(=C/[C@H]3C4=C(CC[C@@H]3C(C)C)COC4=O)CO)COC(=O)[C@H]2[C@@H]1/C=C(\CO)C(=O)O`, the Activity entry in the series on SW-620 and in the series on NCI-H460 was “Non-Toxic” each time. Besides, the result in the series with Candida albicans, in the series with Bacillus subtilis, in the series with Staphylococcus aureus [1], with Streptococcus pyogenes, with Escherichia coli [2] and with Staphylococcus aureus [3] was inactive. Also, the result in the series on Escherichia coli [4], with Pseudomonas aeruginosa [5], in the series on Pseudomonas aeruginosa [6], in the series with Klebsiella pneumoniae [7], with Klebsiella pneumoniae [8] and in the series with Acinetobacter baumannii was inactive.
With `CC(C)[C@H]1CC[C@@](O)(COC(=O)/C(=C/[C@H]2C3=C(CC[C@@H]2C(C)C)COC3=O)CO)[C@@H](C(=O)O)[C@@H]1/C=C(\CO)C(=O)O`, the Activity entry in the series on SW-620 and in the series with NCI-H460 was “Non-Toxic” each time. For the same compound, the outcome with Candida albicans, in the series on Bacillus subtilis, in the series on Staphylococcus aureus [1], with Streptococcus pyogenes, in the series on Escherichia coli [2] and in the series on Staphylococcus aureus [3] was inactive. The outcome with Escherichia coli [4], with Pseudomonas aeruginosa [5], with Pseudomonas aeruginosa [6], with Klebsiella pneumoniae [7], in the series on Klebsiella pneumoniae [8] and with Acinetobacter baumannii was inactive. Further, the result in the series on Enterococcus faecalis [10] was Active.
